Source: US20210178012A1, “FOAM WOUND DRESSING COMPRISING AN ANTISEPTIC” (Coloplast A/S, priority 2018, published 2021)

How the values were obtained:
[1] = Octenidine in foam, no surfactant: extraction from impregnated hydrophilic polyurethane foam discs; assay type: physicochemical; conditions: plain foam, 24 h extraction
Protocol: Discs of hydrophilic polyurethane foam were impregnated by applying a known volume of octenidine-containing solution to the surface of the foam and letting it soak into the foam matrix in a liquid:foam ratio which allowed the foam to be saturated with liquid. Afterwards, the impregnated foam was dried at RT overnight. The dried foam disc was immersed in the extraction media for 24 h and the extracted octenidine concentration was determined by UV at 285 nm

[2] = Previous zone of inhibition studies (not shown); assay type: cell-based; conditions: pure octenidine impregnated into foam without surfactants
[3] = 0.1 w % OCT in impregnation solution
[4] = 0.5 w % OCT in impregnation solution
[5] = 1.0 w % OCT in impregnation solution

CCCCCCCCN=c1ccn(CCCCCCCCCCn2ccc(=NCCCCCCCC)cc2)cc1 [Octenidine, octenidine]
Release % phosphate buffer (23 mM) [1, 3]: 7%
Release % water [1, 3]: 5%
Release % phosphate buffer (23 mM) [1, 4]: 13%
Release % water [1, 4]: 1.5%
Release % phosphate buffer (23 mM) [1, 5]: 20%
Release % water [1, 5]: 1.5%
zones in a zone of inhibition study [2]: small or no zones
